The record followed here is ChEMBL document CHEMBL1806420, “Design, synthesis and antimycobacterial evaluation of novel 3-substituted-N-aryl-6,7-dimethoxy-3a,4-dihydro-3H-indeno[1,2-c]pyrazole-2-carboxamide analogues” (Bioorg Med Chem Lett, 2011).

Broadly, the MIC is the least concentration at which growth counts as inhibited. Higher therefore signals weaker potency.

Structures are written as SMILES. In brackets after ≈: the same amount, converted by molar mass.

For assay [1], the system named is Mycobacterium tuberculosis. Description: Antimycobacterial activity against isoniazid-resistant Mycobacterium tuberculosis by agar dilution method. The assay is classed as functional. In general terms: In agar dilution, organisms are placed on agar that contains the substance at set levels.
Assay [2] has as its system Mycobacterium tuberculosis. The assay can be described thus: Ratio of isoniazid MIC to compound MIC for isoniazid-resistant Mycobacterium tuberculosis. It is filed as functional.

Consider `COc1cc2c(cc1OC)C1=NN(C(=O)Nc3ccc(F)c(Cl)c3)C(c3ccccc3)C1C2` (centres undefined), for which the MIC in assay [1] is 12.5 µM (≈ 5.82 µg/mL). This lies in the double-digit micromolar range.
On the same count and under the same terms, the result for `COc1ccc(C2C3Cc4cc(OC)c(OC)cc4C3=NN2C(=O)Nc2ccc(F)c(Cl)c2)cc1` (centres undefined) reads 12.5 µM (≈ 6.2 µg/mL).
In assay [1], `COc1cc2c(cc1OC)C1=NN(C(=O)Nc3ccc(F)cc3)C(c3ccncc3)C1C2` (centres undefined) returned an MIC of 6.25 µM (≈ 2.7 µg/mL). Against the preceding compound, the MIC is about 2-fold lower.
Regarding `COc1cc2c(cc1OC)C1=NN(C(=O)Nc3ccc(F)cc3)C(c3ccccc3Cl)C1C2` (centres undefined), in assay [1], it took 12.5 µM (≈ 5.82 µg/mL) to inhibit growth (MIC).
With `COc1cc2c(cc1OC)C1=NN(C(=O)Nc3ccc(F)cc3)C(c3ccc(F)cc3)C1C2` (centres undefined), the Ratio in assay [2] is given as 16. For the same compound, in assay [1], the MIC came to 0.78 µM (≈ 0.351 µg/mL).
Compound `COc1cc2c(cc1OC)C1=NN(C(=O)Nc3ccc(F)cc3)C(c3ccccc3)C1C2` (centres undefined) showed an MIC in assay [1] of 10 µM (≈ 4.31 µg/mL).
Same read-out and setting: for `COc1ccc(C2C3Cc4cc(OC)c(OC)cc4C3=NN2C(=O)Nc2ccc(F)cc2)cc1` (centres undefined) the value was 12.5 µM (≈ 5.77 µg/mL).
On the same count and under the same terms, the result for `COc1cc2c(cc1OC)C1=NN(C(=O)Nc3ccc(Br)cc3)C(c3ccncc3)C1C2` (centres undefined) reads 10 µM (≈ 4.93 µg/mL); that for `COc1cc2c(cc1OC)C1=NN(C(=O)Nc3ccc(Br)cc3)C(c3ccccc3Cl)C1C2` (centres undefined), 10 µM (≈ 5.27 µg/mL); that for `COc1cc2c(cc1OC)C1=NN(C(=O)Nc3ccc(Br)cc3)C(c3ccc(F)cc3)C1C2` (centres undefined), 6.25 µM (≈ 3.19 µg/mL).
On the same count and under the same terms, the result for `COc1cc2c(cc1OC)C1=NN(C(=O)Nc3ccc(Br)cc3)C(c3ccccc3)C1C2` (centres undefined) reads above 10 µM; that for `COc1cc2c(cc1OC)C1=NN(C(=O)Nc3ccc(F)c(Cl)c3)C(c3ccncc3)C1C2` (centres undefined), 10 µM (≈ 4.67 µg/mL); that for `COc1cc2c(cc1OC)C1=NN(C(=O)Nc3ccc(F)c(Cl)c3)C(c3ccccc3Cl)C1C2` (centres undefined), 12.5 µM (≈ 6.25 µg/mL).
As for `COc1cc2c(cc1OC)C1=NN(C(=O)Nc3ccc(F)c(Cl)c3)C(c3ccc(F)cc3)C1C2` (centres undefined), the Ratio in assay [2] worked out at 4. Also, the MIC in assay [1] was found to be 3.12 µM (≈ 1.51 µg/mL).
Compound `COc1ccc(C2C3Cc4cc(OC)c(OC)cc4C3=NN2C(=O)Nc2ccc(F)c(Cl)c2)cc1OC` (centres undefined) showed an MIC in assay [1] of 12.5 µM (≈ 6.57 µg/mL).
Same read-out and setting: the result for `NNC(=O)c1ccncc1` [ISONIAZID] reads 12.5 µM (≈ 1.71 µg/mL).
On to `CO[C@H]1/C=C/O[C@@]2(C)Oc3c(C)c(O)c4c(O)c(c(/C=N/N5CCN(C)CC5)c(O)c4c3C2=O)NC(=O)/C(C)=C\C=C\[C@H](C)[C@H](O)[C@@H](C)[C@@H](O)[C@@H](C)[C@H](OC(C)=O)[C@@H]1C` [RIFAMPIN], for which, in assay [1], 3.12 µM (≈ 2.57 µg/mL) was the least that counted as inhibitory (MIC).
